Laboratory results: ChEMBL document CHEMBL1201862, “PubChem BioAssay data set” (2004)
Where a name gives a salt, the structure may show the parent alone.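 Interpolation was linear, between the two tested concentrations surrounding the appropriate level; five concentrations were tested over 48 hours in 96-well plates. GI50: concentration for 50% inhibition of growth.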 Active and inactive are the calls of the source. Cut-off read from the data, not from the text of the source: active = GI50 up to about 1.1 µM and inactive = higher. Starred links: 1 amine or outer side, 2 acyl side, 3 side chain; linkers in the order of their positions; H or OH if unused. Non-standard residues stand in square brackets, D forms with d. Residues, ends and D or L forms follow the SMILES beside them. ξ: configuration not given here. Ile(3ξ) = CCC(C)[C@H](N)C(=O)O; X35 = C=CCC(O[*:1])C(=O)[*:2]; NMeV = CN[C@H](C(=O)O)C(C)C; NMeA = CN[C@@H](C)C(=O)O; βAla = NCCC(=O)O

Key:
Test in all cases: inhibition of tumour cell growth, NCI panel, 48 h
A498 = system: A498
CCRF-CEM = system: CCRF-CEM
DLD-1 = system: DLD-1
EKVX = system: EKVX
HL-60 = system: HL-60
HOP-92 = system: HOP-92
HT-29 = system: HT-29
IGROV-1 = system: IGROV-1
M14 = system: M14
NCI-H226 = system: NCI-H226
OVCAR-5 = system: OVCAR-5
SF-268 = system: SF-268
SF-295 = system: SF-295
SF-539 = system: SF-539
SK-MEL-2 = system: SK-MEL-2
SK-OV-3 = system: SK-OV-3
SNB-19 = system: SNB-19
SNB-75 = system: SNB-75
UACC-257 = system: UACC-257
PC-3 = system: PC-3

Measured: GI50

CC1=NCCc2c1[nH]c1cc(O)ccc21 [HARMALOL HYDROCHLORIDE]
inactive: A498 > 100 µM | CCRF-CEM > 100 µM | DLD-1 > 100 µM | EKVX > 100 µM | HL-60 > 100 µM | HOP-92 > 100 µM | HT-29 > 100 µM | IGROV-1 > 100 µM | M14 > 100 µM | NCI-H226 > 100 µM | OVCAR-5 > 100 µM | SF-268 > 100 µM | SF-295 > 100 µM | SF-539 > 100 µM | SK-MEL-2 > 100 µM | SK-OV-3 > 100 µM | SNB-19 > 100 µM | SNB-75 > 100 µM | UACC-257 > 100 µM

Nc1nc(Cl)c2ncn(CCCC(c3ccccc3)P(=O)(O)O)c2n1 (stereo not drawn)
inactive: A498 > 100 µM | CCRF-CEM > 100 µM | DLD-1 > 100 µM | HL-60 > 100 µM | HOP-92 > 100 µM | HT-29 > 100 µM | IGROV-1 > 100 µM | M14 > 100 µM | OVCAR-5 > 100 µM | SF-268 > 100 µM | SF-295 > 100 µM | SF-539 > 100 µM | SK-MEL-2 > 100 µM | SK-OV-3 > 100 µM | SNB-19 > 100 µM | SNB-75 > 100 µM | UACC-257 > 100 µM

O=C(CCCCCCCCC(=O)OCCCn1cc(C(=O)NC(=O)OCc2ccccc2)c(=O)[nH]c1=O)OCCCn1cc(C(=O)NC(=O)OCc2ccccc2)c(=O)[nH]c1=O
inactive: A498 > 100 µM | CCRF-CEM > 100 µM | DLD-1 > 100 µM | EKVX > 100 µM | HL-60 > 100 µM | HOP-92 > 100 µM | HT-29 > 100 µM | IGROV-1 > 100 µM | M14 > 100 µM | NCI-H226 > 100 µM | OVCAR-5 > 100 µM | SF-268 > 100 µM | SF-295 > 100 µM | SF-539 > 100 µM | SK-MEL-2 > 100 µM | SK-OV-3 > 100 µM | SNB-19 > 100 µM | SNB-75 54.1 µM | UACC-257 > 100 µM

Clc1ccc(/N=N/c2nc3ccccc3nc2/N=N/c2ccc(Cl)cc2Cl)c(Cl)c1
inactive: A498 > 100 µM | DLD-1 > 100 µM | EKVX > 100 µM | HL-60 31.5 µM | HOP-92 44 µM | HT-29 > 100 µM | IGROV-1 > 100 µM | NCI-H226 > 100 µM | SF-268 > 100 µM | SF-295 > 100 µM | SF-539 > 100 µM | SK-MEL-2 > 100 µM | SNB-19 65.8 µM | SNB-75 22.9 µM | UACC-257 > 100 µM

C/C(=N\NS(=O)(=O)c1ccc(C)cc1)C(CN1CCCCC1)C(c1ccccc1)c1c(O)c2ccccc2oc1=O (stereo not drawn)
inactive: A498 > 100 µM | CCRF-CEM > 100 µM | DLD-1 > 100 µM | EKVX > 100 µM | HL-60 > 100 µM | HOP-92 95.7 µM | HT-29 > 100 µM | IGROV-1 > 100 µM | M14 > 100 µM | NCI-H226 > 100 µM | OVCAR-5 > 100 µM | SF-268 > 100 µM | SF-295 > 100 µM | SF-539 > 100 µM | SK-MEL-2 > 100 µM | SK-OV-3 > 100 µM | SNB-19 > 100 µM | SNB-75 > 100 µM | UACC-257 > 100 µM

O=C(O)CC(NC(=O)CP(=O)(O)O)C(=O)O (stereo not drawn)
inactive: A498 2470 µM | CCRF-CEM 682 µM | DLD-1 66.4 µM | EKVX 2000 µM | HL-60 283 µM | HOP-92 424 µM | HT-29 185 µM | IGROV-1 335 µM | M14 383 µM | NCI-H226 2280 µM | OVCAR-5 6120 µM | PC-3 1640 µM | SF-268 180 µM | SF-295 44.9 µM | SK-MEL-2 2470 µM | SK-OV-3 5730 µM | SNB-19 103 µM | SNB-75 6080 µM

CS(=O)(=O)Sc1ccc(Cl)cc1
inactive: A498 2.38 µM | CCRF-CEM 2.54 µM | DLD-1 13.9 µM | EKVX 3.82 µM | HL-60 4.42 µM | HOP-92 7.11 µM | HT-29 9.75 µM | IGROV-1 2.85 µM | M14 12.8 µM | NCI-H226 7.48 µM | OVCAR-5 17.6 µM | SF-268 1.63 µM | SF-295 3.04 µM | SF-539 2.55 µM | SK-MEL-2 6.84 µM | SK-OV-3 23.5 µM | SNB-19 3.4 µM | SNB-75 3.21 µM | UACC-257 8.53 µM

C/C(=N\NC(=O)CC#N)c1c(O)cc(C)oc1=O
inactive: A498 > 100 µM | CCRF-CEM > 100 µM | DLD-1 > 100 µM | EKVX > 100 µM | HL-60 > 100 µM | HOP-92 > 100 µM | HT-29 > 100 µM | IGROV-1 > 100 µM | M14 > 100 µM | NCI-H226 > 100 µM | SF-268 > 100 µM | SF-295 > 100 µM | SF-539 > 100 µM | SK-MEL-2 > 100 µM | SK-OV-3 > 100 µM | SNB-19 > 100 µM | SNB-75 > 100 µM | UACC-257 > 100 µM

Nc1nc(SCC(=O)c2ccccc2)c2[nH]cnc2n1
inactive: A498 > 100 µM | CCRF-CEM 51.6 µM | DLD-1 > 100 µM | HL-60 > 100 µM | HOP-92 46.5 µM | HT-29 > 100 µM | IGROV-1 > 100 µM | M14 > 100 µM | NCI-H226 > 100 µM | OVCAR-5 > 100 µM | SF-268 > 100 µM | SF-295 > 100 µM | SF-539 > 100 µM | SK-MEL-2 > 100 µM | SK-OV-3 > 100 µM | SNB-19 > 100 µM | SNB-75 21.9 µM | UACC-257 > 100 µM

O=C1NC2OCC(O)C(O)C2O1 (stereo not drawn)
inactive: A498 > 100 µM | CCRF-CEM > 100 µM | DLD-1 > 100 µM | EKVX > 100 µM | HL-60 > 100 µM | HOP-92 > 100 µM | HT-29 > 100 µM | IGROV-1 > 100 µM | M14 > 100 µM | OVCAR-5 > 100 µM | SF-268 > 100 µM | SF-295 > 100 µM | SF-539 > 100 µM | SK-MEL-2 > 100 µM | SK-OV-3 > 100 µM | SNB-19 > 100 µM | SNB-75 > 100 µM | UACC-257 > 100 µM

CCCCC[C@@H]1CCCC2NC(CCCCCO[Si](c3ccccc3)(c3ccccc3)C(C)(C)C)CCC21 (stereo partly drawn)
inactive: A498 17.3 µM | CCRF-CEM 7.82 µM | DLD-1 13.2 µM | EKVX 17.3 µM | HL-60 8.71 µM | HOP-92 10.1 µM | HT-29 4.28 µM | IGROV-1 16.9 µM | M14 14.1 µM | NCI-H226 18.7 µM | OVCAR-5 20.1 µM | SF-268 17.9 µM | SF-295 16.9 µM | SF-539 15.2 µM | SK-MEL-2 15.1 µM | SK-OV-3 21.8 µM | SNB-19 17.3 µM | SNB-75 16 µM | UACC-257 15.2 µM

C=CCc1cc(OC)c2c(c1)C(O)CC(c1ccc(OC)c(OC)c1)O2 (stereo not drawn)
inactive: CCRF-CEM > 100 µM | DLD-1 > 100 µM | EKVX > 100 µM | HL-60 24.9 µM | HOP-92 20.6 µM | HT-29 > 100 µM | IGROV-1 > 100 µM | M14 > 100 µM | NCI-H226 > 100 µM | OVCAR-5 > 100 µM | SF-268 > 100 µM | SF-295 > 100 µM | SF-539 78.2 µM | SK-MEL-2 > 100 µM | SK-OV-3 > 100 µM | SNB-19 > 100 µM | SNB-75 89.5 µM | UACC-257 72.4 µM

C=CCC1OC(=O)CCNC(=O)[C@H](C)N(C)C(=O)[C@H](C(C)C)N(C)C(=O)[C@H](C(C)CC)NC(=O)[C@@H]2CCCN2C1=O (stereo partly drawn) (cyclo([Ile(3ξ)][NMeV][NMeA][βAla][X35]P))
inactive: A498 > 71.6 µM | CCRF-CEM 3.62 µM | DLD-1 10.4 µM | EKVX > 100 µM | HL-60 3.39 µM | HOP-92 8.93 µM | HT-29 2.99 µM | IGROV-1 33.6 µM | M14 2.61 µM | NCI-H226 7.55 µM | OVCAR-5 13.6 µM | SF-268 4.12 µM | SF-295 4.41 µM | SF-539 10.1 µM | SK-MEL-2 3.13 µM | SK-OV-3 99.1 µM | SNB-19 > 39.4 µM | SNB-75 > 21.1 µM | UACC-257 4.71 µM

C1=c2ccccc2=C2C(=C(c3ccccc3)C(c3ccccc3)=NN2c2ccccc2)S1
inactive: A498 > 100 µM | CCRF-CEM > 100 µM | DLD-1 > 100 µM | EKVX > 100 µM | HL-60 > 100 µM | HOP-92 > 100 µM | HT-29 > 100 µM | IGROV-1 > 100 µM | M14 > 100 µM | NCI-H226 > 100 µM | OVCAR-5 > 100 µM | SF-268 > 100 µM | SF-295 > 100 µM | SF-539 > 100 µM | SK-MEL-2 > 100 µM | SK-OV-3 > 100 µM | SNB-19 > 100 µM | SNB-75 > 100 µM | UACC-257 > 100 µM

NCc1cc(O)c(O)c(O)c1
inactive: A498 > 100 µM | CCRF-CEM 38.5 µM | DLD-1 > 100 µM | EKVX > 100 µM | HL-60 80.7 µM | HOP-92 > 100 µM | HT-29 > 100 µM | IGROV-1 > 100 µM | M14 > 100 µM | NCI-H226 > 100 µM | OVCAR-5 > 100 µM | SF-268 > 100 µM | SF-295 > 100 µM | SK-MEL-2 > 100 µM | SK-OV-3 > 100 µM | SNB-19 > 100 µM | SNB-75 > 100 µM | UACC-257 > 100 µM
